This is an account of results in patent publication US12281079B2, “Quinoline derivatives, processes for their preparation and uses thereof for the treatment of cancer” (Lead Discovery Center GmbH, priority 2019, dated 2025).

In the assay the target is mitochondrial RNA polymerase (POLRMT) (Mus musculus, UniProt Q8BKF1). Briefly: Homogeneous TR-FRET assay for mitochondrial transcription activity. The class given is biochemical. The settings on record: homogeneous TR-FRET assay according to Example 4. The text has this: The TR-FRET assay was basically conducted as described in WO2016/193231A1, especially as described in example 1 (hereby incorporated by reference). With respect to the back ground of the mitochondrial transcription it is referred to Falkenberg et al. (2002) and Posse et al. (Posse et al., 2015). The method monitors the activity of mitochondrial RNA-polymerase via detection of the formation of its product, a 407 bp long RNA sequence. Detection of the product is facilitated by hybridization of two DNA-oligonucleotide probes to specific and adjacent sequences within the RNA product sequence. Upon annealing of the probes, two fluorophores that are coupled directly to an acceptor nucleotide probe (ATT0647, 5′) or introduced via a coupled streptavidin interacting with a biotinylated donor nucleotide probe on the other side (Europium cryptate, 3′) are brought into sufficient proximity to serve as a fluorescence-donor-acceptor pair as generally described in Walters and Namchuk (2003). Thus, a FRET signal at 665 nm is generated upon excitation at 340 nm.
mitochondrial RNA polymerase (POLRMT), sequence (Q8BKF1 42-1207): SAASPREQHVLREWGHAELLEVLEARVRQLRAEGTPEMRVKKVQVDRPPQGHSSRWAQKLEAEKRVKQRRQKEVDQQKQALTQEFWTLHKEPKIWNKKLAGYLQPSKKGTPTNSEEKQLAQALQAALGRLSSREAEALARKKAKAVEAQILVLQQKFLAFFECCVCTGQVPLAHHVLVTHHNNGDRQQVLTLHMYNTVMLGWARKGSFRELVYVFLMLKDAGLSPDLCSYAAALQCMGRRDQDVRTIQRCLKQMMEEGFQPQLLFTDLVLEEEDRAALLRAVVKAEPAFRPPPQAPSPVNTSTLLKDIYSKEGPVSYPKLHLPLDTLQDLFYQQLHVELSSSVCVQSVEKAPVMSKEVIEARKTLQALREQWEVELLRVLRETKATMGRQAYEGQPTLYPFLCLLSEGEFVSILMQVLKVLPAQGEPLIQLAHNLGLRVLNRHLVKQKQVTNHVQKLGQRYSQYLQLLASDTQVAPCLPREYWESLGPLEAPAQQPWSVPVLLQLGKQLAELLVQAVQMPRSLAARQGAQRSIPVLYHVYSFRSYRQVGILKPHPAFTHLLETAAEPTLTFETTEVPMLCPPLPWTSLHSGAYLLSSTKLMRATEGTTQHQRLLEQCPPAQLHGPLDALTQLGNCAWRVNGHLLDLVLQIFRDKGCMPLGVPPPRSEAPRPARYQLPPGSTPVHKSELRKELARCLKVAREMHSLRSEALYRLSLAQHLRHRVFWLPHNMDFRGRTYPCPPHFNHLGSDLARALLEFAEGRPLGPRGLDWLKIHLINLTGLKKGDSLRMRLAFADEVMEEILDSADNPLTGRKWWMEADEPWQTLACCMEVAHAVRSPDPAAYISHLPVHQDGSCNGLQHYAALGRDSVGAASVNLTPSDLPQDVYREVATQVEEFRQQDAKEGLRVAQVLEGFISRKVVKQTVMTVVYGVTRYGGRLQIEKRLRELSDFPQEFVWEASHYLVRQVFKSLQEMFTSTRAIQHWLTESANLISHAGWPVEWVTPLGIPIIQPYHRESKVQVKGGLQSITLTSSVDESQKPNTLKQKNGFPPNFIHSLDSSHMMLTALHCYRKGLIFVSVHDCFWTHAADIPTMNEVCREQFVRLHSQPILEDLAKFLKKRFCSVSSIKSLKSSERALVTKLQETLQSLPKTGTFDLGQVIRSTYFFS
Briefly, the protocol described here was applied for screening and activity determination in a low-volume 384-well microtiter plate with non-binding surface. For high-throughput application in the 1536-well microtiter plate format, volumes of the reagent mixes were adjusted, maintaining the volumetric ratio. Proteins POLRMT (NM_172551.3), TFAM (NM_009360.4) and TFB2M (NM_008249.4) were diluted from their stocks to working concentrations of 150 nM, 1.8 μM and 330 nM respectively, in a dilution buffer containing 100 mM Tris-HCl pH 8.0, 200 mM NaCl, 10% (v/v) glycerole, 2 mM glutathione (GSH), 0.5 mM EDTA and 0.1 mg/mL BSA. Protein dilutions and template DNA, comprising a pUC18 plasmid encoding the mitochondrial light strand promoter, restriction linearized proximal to the promoter 3′-end (pUC-LSP), were mixed at the twofold final assay-concentration in a reaction buffer, containing 10 mM Tris-HCl pH 7.5, 10 mM MgCl2, 40 mM NaCl, 2 mM GSH, 0.01% (w/v) Tween-20 and 0.1 mg/mL BSA.
5 μL of this mix were dispensed, depending on the chosen microtiter plate format, using multi-channel pipettes or a Multidrop® dispenser (Thermo Fisher Scientific, Waltham Mass.) into the wells of a microtiter plate and incubated at room temperature (rt) for 10 min. Chemical compounds under scrutiny in the assay were applied using contact-free acoustic droplet-dispensing (Echo520® Labcyte Inc., Sunnyvale Calif.) from 10 mM compound stocks in 100% DMSO, to a final concentration of 10 μM or in serial dilution series of the required concentration range. Equal amounts of DMSO without any compound were added to positive control samples, followed by an incubation step at rt for 10 min.
The enzymatic reaction was started by the addition of 5 μL of a mix of dNTPs in reaction buffer to a final concentration of 500 μM each. No nucleotide mix was added to negative control samples. The content of the wells was mixed using a VarioTeleshaker™ (Thermo Fisher Scientific, Waltham Mass.) at 1500 rpm for 45 sec after which the microtiter plate was centrifuged at 500×g for 1 min. The samples were incubated for 2 h at rt with humidity control to avoid evaporation. The detection reagents were prepared in a buffer that was composed, such that the enzymatic reaction was terminated due to chelating of Mg-ions and increased ionic strength, containing 50 mM Tris-HCl pH 7.5, 700 mM NaCl, 20 mM EDTA, and 0.01% (w/v) Tween-20. Importantly Eu-cryptate-coupled streptavidin had to be preincubated with a 100-fold molar excess of a random sequence oligonucleotide for 10 min at rt in the dark to block unspecific binding of single stranded RNA to the protein. Subsequently, the blocked streptavidin(-Eu) was mixed with the DNA-probes on ice and kept away from light until use. […]
For orientation: In TR-FRET formats the signal depends on donor and acceptor labels being close together.
The term IC50 denotes the concentration needed to halve the response being measured. Read a low IC50 as greater potency. For `CC(Oc1ccc2c(-c3ccccc3Cl)ccnc2c1)C(=O)N1CCC[C@H](C(=O)O)C1` (mixture of isomers) [Compound 23, rac-(3S)-1-[2-[[4-(2-chlorophenyl)-7-quinolyl]oxy]propanoyl]piperidine-3-carboxylic acid], the IC50 was in the range of 20 to 100 nM.
As for `CC(C)NC(=O)C(C)Oc1ccc2c(-c3ccc(F)cc3Cl)ccnc2n1` (racemic) [Compound 109, 2-[[5-(2-chloro-4-fluoro-phenyl)-1,8-naphthyridin-2-yl]oxy]-N-isopropyl-propanamide], the figure is 1000 to 10000 nM; as for `CCC(Oc1ccc2c(-c3ccccc3Cl)ccnc2c1)C(=O)N1CCC[C@H](CC(=O)O)C1` (mixture of isomers) [Compound 140, 2-[rac-(3R)-1-[2-[[4-(2-chlorophenyl)-7-quinolyl]oxy]butanoyl]-3-piperidyl]acetic acid], 20 to 100 nM; as for `Cc1cccc(C)c1-c1ccnc2cc(O[C@H](C)C(=O)N3CCCC(CS(N)(=O)=O)C3)ccc12` (mixture of isomers) [Compound 190, [1-[rac-(2R)-2-[[4-(2,6-dimethylphenyl)-7-quinolyl]oxy]propanoyl]-3-piperidyl]methanesulfonamide], less than 20 nM.
Regarding `CCOC(=O)C[C@H]1CCCN(C(=O)[C@@H](C)Oc2ccc3c(-c4c(C)cccc4C)ccnc3c2)C1` [Compound 6, ethyl 2-[(3R)-1-[(2R)-2-[[4-(2,6-dimethylphenyl)-7-quinolyl]oxy]propanoyl]-3-piperidyl]acetate], the IC50 was less than 20 nM.
In turn, `COC(=O)C[C@H]1CCN(C(=O)[C@@H](C)Oc2ccc3c(-c4ccc(F)cc4Cl)ccnc3c2)C1` [Compound 37, methyl 2-[(3R)-1-[(2R)-2-[[4-(2-chloro-4-fluoro-phenyl)-7-quinolyl]oxy]propanoyl]pyrrolidin-3-yl]acetate] had an IC50 of 100 to 1000 nM.
`Cc1ccccc1-c1cc(Cl)nc2cc(O[C@H](C)C(=O)O)ccc12` [Compound 43, (2R)-2-[[2-chloro-4-(o-tolyl)-7-quinolyl]oxy]propanoic acid]: the 50% inhibitory concentration (IC50) is 100 to 1000 nM.
The same measure for `C[C@@H](Oc1ccc2c(-c3ccc(F)cc3Cl)ccnc2c1)C(=O)O` [Compound 44, (R)-2-((4-(2-chloro-4-fluorophenyl)quinolin-7 yl)oxy)propanoic acid]: 100 to 1000 nM; for `CCOC(=O)c1ccc(NC(=O)[C@@H](C)Oc2ccc3c(-c4ccc(F)cc4Cl)ccnc3c2)cc1` [Compound 51, ethyl 4-[[(2R)-2-[[4-(2-chloro-4-fluoro-phenyl)-7-quinolyl]oxy]propanoyl]amino]benzoate]: 100 to 1000 nM.
The same measure for `COC(=O)C1CC(NC(=O)[C@@H](C)Oc2ccc3c(-c4ccc(F)cc4Cl)ccnc3c2)C1` (stereo partly drawn) [Compound 54, methyl 3-[[(2R)-2-[[4-(2-chloro-4-fluoro-phenyl)-7-quinolyl]oxy]propanoyl]amino]cyclobutanecarboxylate]: 100 to 1000 nM; for `CCOC(=O)C1CCN(C(=O)[C@@H](C)Oc2ccc3c(-c4ccc(F)cc4Cl)ccnc3c2)CC1` [Compound 58, ethyl 1-[(2R)-2-[[4-(2-chloro-4-fluoro-phenyl)-7-quinolyl]oxy]propanoyl]piperidine-4-carboxylate]: 100 to 1000 nM.
`C[C@@H](Oc1ccc2c(-c3cccc(F)c3Cl)ccnc2c1)C(=O)N1CCC[C@H](CC(=O)O)C1` [Compound 65, 2-[(3R)-1-[(2R)-2-[[4-(2-chloro-3-fluoro-phenyl)-7-quinolyl]oxy]propanoyl]-3-piperidyl]acetic acid] displayed an IC50 of 20 to 100 nM.
The same measure for `COC(=O)C[C@@H]1CCN(C(=O)[C@@H](C)Oc2ccc3c(-c4ccc(F)cc4Cl)ccnc3c2)C1` [Compound 67, methyl 2-[(3S)-1-[(2R)-2-[[4-(2-chloro-4-fluoro-phenyl)-7-quinolyl]oxy]propanoyl]pyrrolidin-3-yl]acetate]: 100 to 1000 nM.
Take `COC(=O)[C@@H]1CCCN(C(=O)[C@@H](C)Oc2ccc3c(-c4ccc(F)cc4Cl)ccnc3c2)C1` [Compound 71, methyl (3R)-1-[(2R)-2-[[4-(2-chloro-4-fluoro-phenyl)-7-quinolyl]oxy]propanoyl]piperidine-3-carboxylate]: the IC50 lay in the range of 100 to 1000 nM.
As for `CCC(=O)N1CCN(C(=O)[C@@H](C)Oc2ccc3c(-c4ccccc4Cl)cc(Cl)nc3c2)CC1` [Compound 72, (2R)-2-[[2-chloro-4-(2-chlorophenyl)-7-quinolyl]oxy]-1-(4-propanoylpiperazin-1-yl)propan-1-one], the figure is 100 to 1000 nM.
Consider `CCOC(=O)[C@H]1CCN(C(=O)[C@@H](C)Oc2ccc3c(-c4ccc(F)cc4Cl)ccnc3c2)C1` [Compound 75, ethyl (3S)-1-[(2R)-2-[[4-(2-chloro-4-fluoro-phenyl)-7-quinolyl]oxy]propanoyl]pyrrolidine-3-carboxylate], for which the IC50 lay in the range of 100 to 1000 nM.
As for `CC(C)OC(=O)COc1ccc2c(-c3ccccc3Cl)ccnc2c1` [Compound 82, isopropyl 2-[[4-(2-chlorophenyl)-7-quinolyl]oxy]acetate], the figure is 1000 to 10000 nM; as for `Cc1cc(F)cc(C)c1-c1ccnc2cc(O[C@H](C)C(=O)N3CCC[C@H](C(=O)O)C3)ccc12` [Compound 84, (3S)-1-[(2R)-2-[[4-(4-fluoro-2,6-dimethyl-phenyl)-7-quinolyl]oxy]propanoyl]piperidine-3-carboxylic acid], less than 20 nM.
The same measure for `C[C@@H](Oc1ccc2c(-c3ccccc3Cl)cc(Cl)nc2c1)C(=O)N1CCN(C(=O)CN)CC1` [Compound 85, (2R)-1-[4-(2-aminoacetyl)piperazin-1-yl]-2-[[2-chloro-4-(2-chlorophenyl)-7-quinolyl]oxy]propan-1-one]: 1000 to 10000 nM; for `CCOC(=O)[C@H]1CCCN(C(=O)COc2ccc3c(-c4ccccc4Cl)ccnc3c2)C1` [Compound 87, ethyl (3S)-1-[2-[[4-(2-chlorophenyl)-7-quinolyl]oxy]acetyl]piperidine-3-carboxylate]: 1000 to 10000 nM; for `CCOC(=O)C[C@@H]1CCCN(C(=O)[C@@H](C)Oc2ccc3c(-c4ccc(F)cc4Cl)ccnc3c2)C1` [Compound 89, ethyl 2-[(3S)-1-[(2R)-2-[[4-(2-chloro-4-fluoro-phenyl)-7-quinolyl]oxy]propanoyl]-3-piperidyl]acetate]: 1000 to 10000 nM.
Turning to `C[C@@H](Oc1ccc2c(-c3ccccc3Cl)cc(F)nc2c1)C(=O)O` [Compound 90, (2R)-2-[[4-(2-chlorophenyl)-2-fluoro-7-quinolyl]oxy]propanoic acid], the concentration for half-maximal inhibition (IC50) was 1000 to 10000 nM.
The same measure for `C[C@@H](Oc1ccc2c(-c3ccc(F)cc3Cl)cc(Cl)nc2c1)C(=O)O` [Compound 91, (2R)-2-[[2-chloro-4-(2-chloro-4-fluoro-phenyl)-7-quinolyl]oxy]propanoic acid]: 1000 to 10000 nM; for `CCOC(=O)C[C@H]1CCCN(C(=O)[C@@H](C)Oc2ccc3c(-c4ccccc4Cl)cc(Cl)nc3c2)C1` [Compound 92, ethyl 2-[(3R)-1-[(2R)-2-[[2-chloro-4-(2-chlorophenyl)-7-quinolyl]oxy]propanoyl]-3-piperidyl]acetate]: 1000 to 10000 nM.
The same measure for `CCOC(=O)C[C@H]1CCCN(C(=O)[C@@H](C)Oc2ccc3c(-c4ccc(F)cc4Cl)cc(Cl)nc3c2)C1` [Compound 93, ethyl 2-[(3R)-1-[(2R)-2-[[2-chloro-4-(2-chloro-4-fluoro-phenyl)-7-quinolyl]oxy]propanoyl]-3-piperidyl]acetate]: 1000 to 10000 nM; for `CCOC(=O)[C@H]1CCCN(C(=O)[C@@H](C)Oc2ccc3c(-c4ccc(F)cc4C)cc(Cl)nc3c2)C1` [Compound 94, ethyl (3S)-1-[(2R)-2-[[2-chloro-4-(4-fluoro-2-methyl-phenyl)-7-quinolyl]oxy]propanoyl]piperidine-3-carboxylate]: 1000 to 10000 nM.
